Test results from patent US6492397B1, “N-arylheteroarylalkyl imidazol-2-one compounds for treatment of arteriosclerosis” (Pharmacia Corporation, priority 1991, dated 2002).
Where two headings read alike, the source gives them in different places.

Tests used:
[1] = test system: rabbit aortic rings; assay: Assay B: In Vitro Vascular Smooth Muscle Response for AII (antagonist activity in rabbit aortic rings); assay type: cell-based; settings: Oryctolagus cuniculus, test antagonist at 10^-5 M, AII contraction, read-out: Assay B pA2 (converted)
Method: Assay B: In Vitro Vascular Smooth Muscle-Response for AII
The compounds of the invention were tested for antagonist activity in rabbit aortic rings. Male New Zealand white rabbits (2-2.5 kg) were sacrificed using an overdose of pentobarbital and exsanguinated via the carotid arteries. The thoracic aorta was removed, cleaned of adherent fat and connective tissue and then cut into 3-mm ring segments. The endothelium was removed from the rings by gently sliding a rolled-up piece of filter paper into the vessel lumen. The rings were then mounted in a water-jacketed tissue bath, maintained at 37° C., between moveable and fixed ends of a stainless steel wire with the moveable end attached to an FT03 Grass transducer coupled to a Model 7D Grass Polygraph for recording isometric force responses. The bath was filled with 20 ml of oxygenated (95% oxygen/5% carbon dioxide) Krebs solution of the following composition (mM): 130 NaCl, 15 NaHCO3, […], 1.2 NaH2PO4, 1.2 MgSO4, 2.5 CaCl2, and 11.4 glucose. The preparations were equilibrated for one hour before approximately one gram of passive tension was placed on the rings. Angiotensin II concentration-response curves were then recorded (3×10^−10 to 1×10^−5 M). Each concentration of AII was allowed to elicit its maximal contraction, and then AII was washed out repeatedly for 30 minutes before rechallenging with a higher concentration of AII. Aorta rings were exposed to the test antagonist at 10^−5 M for 5 minutes before challenging with AII. Adjacent segments of the same aorta ring were used for all concentration-response curves in the presence or absence of the test antagonist. The effectiveness of the test compound was expressed in terms of pA2 values and were calculated according to H. O. Schild [Br. J. Pharmacol. Chemother., 2,189-206 (1947)]. The PA2 value is the concentration of the antagonist which increases the EC50 value for AII by a factor of two. Each test antagonist was evaluated in aorta rings from two rabbits.

[2] = molecular target: smooth muscle angiotensin II receptor; assay: Assay A: Angiotensin II Binding Activity (125I-angiotensin II displacement, rat uterine membrane preparation); settings: 50% displacement of specifically bound 125I-AII, rat uterine membranes, 25° C., 60 min
Method: Assay A: Angiotensin II Binding Activity
Compounds of the invention were tested for ability to bind to the smooth muscle angiotensin II receptor using a rat uterine membrane preparation. […] Other chemicals were obtained from Sigma Chemical Co. This assay was carried out according to the method of Douglas et al [Endocrinology, 106, 120-124 (1980)]. Rat uterine membranes were prepared from fresh tissue. All procedures were carried out at 4° C. Uteri were stripped of fat and homogenized in phosphate-buffered saline at pH 7.4 containing 5 mM EDTA. The homogenate was centrifuged at 1500×g for 20 min., and the supernatant was recentrifuged at 100,000×g for 60 min. The pellet was resuspended in buffer consisting of 2 mM EDTA and 50 mM Tris-HCl (pH 7.5) to a final protein concentration of 4 mg/ml. Assay tubes were charged with 0.25 ml of a solution containing 5 mM MgCl2, 2 mM EDTA, 0.5% bovine serum albumin, 50 mM Tris-HCl, pH 7.5 and […] (approximately 10^5 cpm) in the absence or in the presence of unlabelled ligand. The reaction was initiated by the addition of membrane protein and the mixture was incubated at 25° C. for 60 min. The incubation was terminated with ice-cold 50 mM Tris-HCl (pH 7.5) and the mixture was filtered to separate membrane-bound labelled peptide from the free ligand. The incubation tube and filter were washed with ice-cold buffer. Filters were assayed for radioactivity in a Micromedic gamma counter. Nonspecific binding was defined as binding in the presence of 10 μM of unlabelled AII. Specific binding was calculated as total binding minus nonspecific binding. […] Binding data were analyzed by a nonlinear least-squares curve fitting program.

[3] = test system: pressor response to AII; assay: Assay C: In Vivo Intragastric Pressor Assay Response for AII Antagonists; parameters: species or system rat; settings: for Assay C Duration: Dose: 3 mg/kg (i.g.), Sprague-Dawley rats, AII challenges up to 180 minutes after gavage; for inhibition in vivo at 3 mg/kg: Rattus norvegicus, po
Method: Assay C: In Vivo Intragastric Pressor Assay Response for AII Antagonists
Male Sprague-Dawley rats weighing 225-300 grams were anesthetized with methohexital (30 mg/kg, i.p.) and catheters were implanted into the femoral artery and vein. The catheters were tunneled subcutaneously to exit dorsally, posterior to the head and between the scapulae. The catheters were filled with heparin (1000 units/ml of saline). The rats were returned to their cage and allowed regular rat chow and water ad libitum. After full recovery from surgery (3-4 days), rats were placed in Lucite holders and the arterial line was connected to a pressure transducer. Arterial pressure was recorded on a Gould polygraph (mmHg). Angiotensin II was administered as a 30 ng/kg bolus via the venous catheter delivered in a 50 μl volume with a 0.2 ml saline flush. The pressor response in mm Hg was measured by the difference from pre-injection arterial pressure to the maximum pressure achieved. The AII injection was repeated every 10 minutes until three consecutive injections yielded responses within 4 mmHg of each other. These three responses were then averaged and represented the control response to AII. The test compound was suspended in 0.5% methylcellulose in water and was administered by gavage. The volume administered was 2 ml/kg body weight. The standard dose was 3 mg/kg. Angiotensin II bolus injections were given at 30, 45, 60, 75, 120, 150, and 180 minutes after gavage. The pressor response to AII was measured at each time point. The rats were then returned to their cage for future testing. A minimum of 3 days was allowed between tests. Percent inhibition was calculated for each time point following gavage by the following formula: [(Control Response−Response at time point)/Control Response]×100.

[4] = first value of the pair (aorta rings from two rabbits)
[5] = second value of the pair (aorta rings from two rabbits)

Compound	IC50 [2] [nM]	Kb [1, 4] [nM]	Kb [1, 5] [nM]	Assay C Duration [3] [min]	inhibition in vivo at 3 mg/kg [3] [%]
CCCCn1cc(C2CCCCC2)n(Cc2ccc(-c3ccccc3-c3nnn[nH]3)nc2)c1=O [Example 7, 1-butyl-4-cyclohexyl-1,3-dihydro-3-[[6-[2-(1H-tetrazol-5-yl)phenyl]-3-pyridinyl]methyl]-2H-imidazol-2-one]	81	17.8	17.4	180	10
CCCCc1cn(C2CCCC2)c(=O)n1Cc1ccc(-c2ccccc2-c2nnn[nH]2)nc1 [Example 23, 1-cyclopentyl-4-butyl-1,3-dihydro-3-[[6-[2-(1H-tetrazol-5-yl)phenyl]-3-pyridinyl]methyl]-2H-imidazol-2-one]	99	0.912	2.51		
CCCCc1cn(CCc2ccccc2)c(=O)n1Cc1ccc(-c2ccccc2-c2nnn[nH]2)nc1 [Example 26, 1-(2-phenylethyl)-4-butyl-1,3-dihydro-3-[[6-[2-(1H-tetrazol-5-yl)phenyl]-3-pyridinyl]methyl]-2H-imidazol-2-one]	3.6	4.37	3.63	180	15
CCCCc1cn(C2C3CC4CC(C3)CC2C4)c(=O)n1Cc1ccc(-c2ccccc2-c2nnn[nH]2)nc1 (centres unmarked) [Example 29, 1-(2-adamantyl)-4-butyl-1,3-dihydro-3-[[6-[2-(1H-tetrazol-5-yl)phenyl]-3-pyridinyl]methyl]-2H-imidazol-2-one]	51				
CCCCc1cn(C23CC4CC(CC(C4)C2)C3)c(=O)n1Cc1ccc(-c2ccccc2-c2nnn[nH]2)nc1 [Example 30, 1-(1-adamantyl)-4-butyl-1,3-dihydro-3-[[6-[2-(1H-tetrazol-5-yl)phenyl]-3-pyridinyl]methyl]-2H-imidazol-2-one]	65				
CCCCc1cn(-c2ccccc2)c(=O)n1Cc1ccc(-c2ccccc2-c2nnn[nH]2)nc1 [Example 31, 1-phenyl-4-butyl-1,3-dihydro-3-[[6-[2-(1H-tetrazol-5-yl)phenyl]-3-pyridinyl]methyl]-2H-imidazol-2-one]	45				
CCCCc1cn(-c2ccccc2C)c(=O)n1Cc1ccc(-c2ccccc2-c2nnn[nH]2)nc1 [Example 33, 1-(2-methylphenyl)-4-butyl-1,3-dihydro-3-[[6-[2-(1H-tetrazol-5-yl)phenyl]-3-pyridinyl]methyl]-2H-imidazol-2-one]	9.4			>180	65
CCCCc1cn(-c2ccccc2OC)c(=O)n1Cc1ccc(-c2ccccc2-c2nnn[nH]2)nc1 [Example 34, 1-(2-methoxyphenyl)-4-butyl-1,3-dihydro-3-[[6-[2-(1H-tetrazol-5-yl)phenyl]-3-pyridinyl]methyl]-2H-imidazol-2-one]	9				
CCCCc1cn(-c2ccccc2C(C)C)c(=O)n1Cc1ccc(-c2ccccc2-c2nnn[nH]2)nc1 [Example 35, 1-(2-isopropylphenyl)-4-butyl-1,3-dihydro-3-[[6-[2-(1H-tetrazol-5-yl)phenyl]-3-pyridinyl]methyl]-2H-imidazol-2-one]	14				
CCCCc1cn(-c2c(C)cccc2C)c(=O)n1Cc1ccc(-c2ccccc2-c2nnn[nH]2)nc1 [Example 38, 1-(2,6-dimethylphenyl)-4-butyl-1,3-dihydro-3-[[6-[2-(1H-tetrazol-5-yl)phenyl]-3-pyridinyl]methyl]-2H-imidazol-2-one]	5				

Further lines, with some results ahead:

IC50 [2] [nM]	Compound	Kb [1, 4] [nM]	Kb [1, 5] [nM]	Assay C Duration [3] [min]	inhibition in vivo at 3 mg/kg [3] [%]
38	CCCc1cn(CCC)c(=O)n1Cc1ccc(-c2ccccc2-c2nnn[nH]2)nc1 [Example 2, 1,4-dipropyl-1,3-dihydro-3-[[6-[2-(1H-tetrazol-5-yl)phenyl]-3-pyridinyl]methyl]-2H-imidazol-2-one]	7.41	39.8	180	25
770	CCCn1cc(CC(C)C)n(Cc2ccc(-c3ccccc3-c3nnn[nH]3)nc2)c1=O [Example 3, 1-propyl-4-isobutyl-1,3-dihydro-3-[[6-[2-(1H-tetrazol-5-yl)phenyl]-3-pyridinyl]methyl]-2H-imidazol-2-one]	34.7	112		
140	CCCCn1cc(CC(C)C)n(Cc2ccc(-c3ccccc3-c3nnn[nH]3)nc2)c1=O [Example 4, 1-butyl-4-isobutyl-1,3-dihydro-3-[[6-[2-(1H-tetrazol-5-yl)phenyl]-3-pyridinyl]methyl]-2H-imidazol-2-one]	19.1	81.3		
29	CCCCn1cc(CCC(C)C)n(Cc2ccc(-c3ccccc3-c3nnn[nH]3)nc2)c1=O [Example 5, 1-butyl-4-isopentyl-1,3-dihydro-3-[[6-[2-(1H-tetrazol-5-yl)phenyl]-3-pyridinyl]methyl]-2H-imidazol-2-one]	2.29	5.89		
11	CCCCn1cc(CCC2CC2)n(Cc2ccc(-c3ccccc3-c3nnn[nH]3)nc2)c1=O [Example 9, 1-butyl-4-(2-cyclopropylethyl)-1,3-dihydro-3-[[6-[2-(1H-tetrazol-5-yl)phenyl]-3-pyridinyl]methyl]-2H-imidazol-2-one]	0.537	1.35	180	10
20	CCCCc1cn(C(C)C)c(=O)n1Cc1ccc(-c2ccccc2-c2nnn[nH]2)nc1 [Example 16, 1-isopropyl-4-butyl-1,3-dihydro-3-[[6-[2-(1H-tetrazol-5-yl)phenyl]-3-pyridinyl]methyl]-2H-imidazol-2-one]	3.8	1.7	>180	45
17	CCCCc1cn(C(C)(C)C)c(=O)n1Cc1ccc(-c2ccccc2-c2nnn[nH]2)nc1 [Example 17, 1-tertbutyl-4-butyl-1,3-dihydro-3-[[6-[2-(1H-tetrazol-5-yl)phenyl]-3-pyridinyl]methyl]-2H-imidazol-2-one]	1.66	2.34	180	10
9.2	CCCCc1cn(CCC(C)(C)C)c(=O)n1Cc1ccc(-c2ccccc2-c2nnn[nH]2)nc1 [Example 19, 1-(3,3-dimethylbutyl)-4-butyl-1,3-dihydro-3-[[6-[2-(1H-tetrazol-5-yl)phenyl]-3-pyridinyl]methyl]-2H-imidazol-2-one]	3.72	4.37	>180	50
